Assay results: article PMC6930638, “The Masked Polar Group Incorporation (MPGI) Strategy in Drug Design: Effects of Nitrogen Substitutions on Combretastatin and Isocombretastatin Tubulin Inhibitors” (Molecules, 2019)
Like-named read-outs stand apart in the source and are kept apart here.

Legend:
[1] = tested on: rat primary pancreatic cells; assay: Toxicity against rat primary pancreatic cells (MTT); details: 7 h
Experimental: The toxicity of the compounds against rat primary pancreatic cells was evaluated by the MTT protocol (Table 2). […] Sodium taurocholate (NaTc) was also used at high concentrations as a model of acute pancreatitis in vitro.
Rat primary pancreatic cells were isolated as previously described. Afterwards, pancreatic cells were resuspended in Na-HEPES solution (pH 7.4) containing 14 mM glucose, 1% essential amino acid mixture, 1% (w/v) BSA, 0.01% (w/v) STI, 0.5 mM CaCl2 and incubated (5% CO2, at 37 °C) for 7 h in the absence (non-treated control) or the presence of compounds at different concentrations. After the treatment, cells were incubated (5% CO2, at 37 °C) with 0.5 mg/mL MTT for 2 h and the formazan crystals were solubilized with DMSO (v/v). The optical density was read at 570 nm with a reference wavelength of 630 nm. Non-treated cell viability was set as 100%.

[2] = tested on: Bovine brain microtubule protein (MTP); assay: Tubulin polymerization inhibition assay (turbidimetry); assay type: biochemical; details: 1.5 mg/mL MTP; IC50 calculated only if more than 50% inhibition at 20 µM; read-out: TPI IC50
[3] = tested on: Bovine brain microtubule protein (MTP); parameters: method as in PMID 26092446; details: comparison values in text; read-out: TPI IC50; cited from earlier work
[4] = tested on: HeLa cervix epithelioid carcinoma; assay: MTT cell antiproliferative assay, HeLa; assay type: cell-based; details: Homo sapiens, 72 h
[5] = tested on: HeLa, HT-29 and MCF-7 human tumor cell lines; assay: Antiproliferative activity over the three human tumor cell lines (MTT); assay type: cell-based; details: Homo sapiens, range over the cell lines, Table S1; read-out: Cytotoxicity range (range of antiproliferative IC50 values)
[6] = tested on: MCF-7 breast adenocarcinoma; assay: MTT cell antiproliferative assay, MCF-7; assay type: cell-based; details: Homo sapiens, MCF7, 72 h
[7] = tested on: HT-29 colon adenocarcinoma; assay: MTT cell antiproliferative assay, HT-29 (without or with verapamil); assay type: cell-based, human
Experimental: The in vitro antiproliferative activity of the synthesized compounds was evaluated by a colorimetric reaction, using the MTT reagent. They were tested against three different human tumor cell lines: HeLa cervix epithelioid carcinoma, HT-29 colon adenocarcinoma, and MCF-7 breast adenocarcinoma. […] Moving the alkylamino substituent from a para to a meta position with respect to the bridge results in potency reduction, except for the phenstatin analogue 1f. However, the introduction of a nitrogen atom to form 2-dimethylaminopyridine derivatives entails a loss of activity, both for phenstatin analogues (1b, 2b), while for isocombretastatins, it only involves a 2–3 times potency decrease (3b). For combretastatins, it implies an improvement in the cytotoxicity values down to tenths of nanomolar (8b). […] On the other hand, the best 2-dimethylaminopyridine was combretastatin 8b. All ammonium salts derivatives were not cytotoxic at micromolar concentrations.
As observed in Table 1, there are no significant changes in the IC50 values for most compounds, except for combretastatins 8a and 8i.
Acquired resistance to antitumor drugs is one of the more important problems of chemotherapy, also affecting tubulin-targeting drugs. In order to ascertain the impact of multidrug resistance phenotypes on the action of the compounds, we have measured the cell proliferation inhibitory activity of HT-29 cells in the presence of verapamil, a known P-glycoprotein 1/multidrug resistance protein 1 (MDR1) inhibitor at a concentration of 10 µM, not affecting cell proliferation. […] Except for the combretastatin analogues 8a and 8i, the affected drugs are all pyridine drugs.
HeLa (human cervical carcinoma) and MCF-7 (human breast carcinoma) cell lines were cultured in Dulbecco’s Modified Eagles Medium (DMEM) supplemented with 2 mM L-glutamine (Lonza-Cambrex, Karlskoga, Sweden), 10% (v/v) heat inactivated fetal bovine serum (HIFBS) (Lonza-Cambrex) and 100 μg/mL streptomycin-100 IU/mL penicillin (Lonza-Cambrex) at 37 °C in humidified 95% air and 5% CO2. HT-29 (human colon carcinoma) cells were cultured at 37 °C in complete RPMI 1640 medium containing 2 mM L-glutamine, 10% (v/v) HIFBS and 100 μg/mL streptomycin-100 IU/mL penicillin in humidified 95% air and 5% CO2 atmosphere.
The effect of the different compounds on the proliferation of human cell lines was determined by using the MTT (3-[4,5-dimethylthiazol-2-yl]-2,5-diphenyltetrazolium bromide) reagent (MTT Thiazolyl Blue Tetrazolium Bromide, Sigma-Aldrich, St. Louis, MO, USA) dissolved in PBS 5 mg/mL. Cell viability was evaluated seeding 100 µL of cells in exponential growth phase with appropriate cell line concentration (1.5 × 10^4 HeLa and MCF-7 cells/mL and 3 × 10^4 HT-29 cells/mL) in complete medium in 96-well plates at 37 °C and 5% CO2. After 24 h incubation to allow cells to attach to the plates the ligands were added at different concentrations from 10^−5 to 10^−9 M. The effect on the proliferation was evaluated 72 h post-treatment by adding the MTT reagent (10 µL/well) to a final concentration of 0.5 mg/mL and the plate was further incubated for another 3 h. After this period, the supernatant was removed, the MTT violet crystals formed on the bottom of each well were dissolved in DMSO (100 µL/well) and subsequently, the absorbance of the color complex was read at 570 nm using a multi-well plate reader. Compounds were dissolved in dimethyl sulfoxide (DMSO) and the final solvent concentrations never exceeded 0.5% (v/v). The control wells included treated cells with 0.5% (v/v) DMSO and the positive control. Measurements were performed in triplicate, and each experiment was repeated three times. […] Nonlinear curves fitting the experimental data were carried out for each compound.

With C[C@H](CCC(=O)NCCS(=O)(=O)O)[C@H]1CC[C@H]2[C@@H]3[C@H](O)C[C@@H]4C[C@H](O)CC[C@]4(C)[C@H]3C[C@H](O)[C@]12C [NaTc, Sodium taurocholate, reference compound] as the molecule, how does the “live cells with respect to the non-treated control (means ± S.E.M.)” value ([1]; 0.50%) read?
Its value is 24.83 ± 11.86%.

For COc1cc(C=Cc2ccc(N(C)C)cc2)cc(OC)c1OC [Compound 8a, N,N-dimethyl-4-(3,4,5-trimethoxystyryl)aniline], which IC50 [2] is on record?
Its IC50 is 3400 nM.

And the IC50 [3]?
The IC50 was 3400 nM.

And the IC50 [4]?
The IC50 was 208 nM.

What about the IC50 [5] of the same molecule?
The IC50 was 102 to 503 nM.

What about the IC50 [6] of the same molecule?
Its IC50 is 273 nM.

What about the “improvement of HT-29 IC50 after verapamil treatment” value ([7]; 10 µM verapamil) of the same molecule?
The value was greater than 2 fold.

What about the IC50 ([7]; Homo sapiens, HT-29, MTT, 72 h) of the same molecule?
The IC50 was 503 nM.

With COc1ccc(/C=C\c2cc(OC)c(OC)c(OC)c2)cc1O [CA-4, Combretastatin A4, reference compound] as the molecule, how does the IC50 [3] read?
Its IC50 is 1000 to 4000 nM.

Which “live cells with respect to the non-treated control (means ± S.E.M.)” value ([1]; 0.05 µM) does the source give for CC(=O)O[C@H]1C[C@H](O[C@H]2[C@@H](O)C[C@H](O[C@H]3[C@@H](O)C[C@H](O[C@H]4CC[C@@]5(C)[C@H](CC[C@@H]6[C@@H]5C[C@@H](O)[C@]5(C)[C@@H](C7=CC(=O)OC7)CC[C@]65O)C4)O[C@@H]3C)O[C@@H]2C)O[C@H](C)[C@H]1O [Acetyldigoxin, acetyl-digoxin, reference compound] here?
Its value is 84.41 ± 9.64%.
